Columns and labels:
rat receptor NKRPI = target: T1, rat receptor NKRPI (Rattus norvegicus, UniProt P27471); experiment: ELISA type assay, interaction with NKRPI receptor; type: binding
T1 sequence (P27471 1-223): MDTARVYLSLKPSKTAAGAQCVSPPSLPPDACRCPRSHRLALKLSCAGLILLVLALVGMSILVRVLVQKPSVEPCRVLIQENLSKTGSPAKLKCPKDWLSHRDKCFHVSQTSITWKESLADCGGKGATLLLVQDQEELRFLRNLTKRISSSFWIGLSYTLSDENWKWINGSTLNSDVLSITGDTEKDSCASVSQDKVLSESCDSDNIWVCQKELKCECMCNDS
Experimental: (§1) In addition, as a model for the interference with the natural killer cells of the immune system, the compounds were evaluated in an ELISA type assay for their interaction with the rat receptor NKRPI and the human CD 69 receptor.

human CD 69 receptor = target: T2, human CD 69 receptor (Homo sapiens, UniProt Q07108); experiment: ELISA type assay, interaction with CD 69 receptor; type: binding
T2 sequence (Q07108 1-199): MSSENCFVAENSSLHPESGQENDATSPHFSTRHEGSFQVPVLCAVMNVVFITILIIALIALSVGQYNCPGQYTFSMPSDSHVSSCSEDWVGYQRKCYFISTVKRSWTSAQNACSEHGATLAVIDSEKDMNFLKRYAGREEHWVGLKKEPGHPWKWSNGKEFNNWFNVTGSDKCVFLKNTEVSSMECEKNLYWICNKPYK
Experimental: as §1

[1] = tested on: Candida albicans (strain CBS 562); experiment: adhesion inhibition of Candida albicans; type: cell-based; conditions: CBS562
Experimental: Di-, tetra- and octavalent GINAc-linked “click” glycodendrimers as depicted herein-below were evaluated as adhesion inhibitors of Candida albicans (strain CBS 562) and compared to the free monosaccharide GlcNAc (N-acetyl glucosamine).

−log IC50 (NKRPI) (rat receptor NKRPI)	−log IC50 (CD69) (human CD 69 receptor)	SMILES	IC50 (rat receptor NKRPI; read-out: −log IC50 (NKRPI) (converted)) [µM]	IC50 (human CD 69 receptor; read-out: −log IC50 (CD69) (converted)) [µM]	inhibition at 113 µM [1] [%]
8.5	7.54	COC(=O)c1cc(OCCNC(=O)c2cc(OCc3cn(CCCOC4OC(CO)C(O)C(O)C4NC(C)=O)nn3)cc(OCc3cn(CCCOC4OC(CO)C(O)C(O)C4NC(C)=O)nn3)c2)cc(OCCNC(=O)c2cc(OCc3cn(CCCOC4OC(CO)C(O)C(O)C4NC(C)=O)nn3)cc(OCc3cn(CCCOC4OC(CO)C(O)C(O)C4NC(C)=O)nn3)c2)c1 (centres unmarked) [TETRA]	–	–	–
–	–	CC(=O)N[C@H]1C(O)O[C@H](CO)[C@@H](O)[C@@H]1O (some centres unmarked) [GlcNAc, N-acetyl glucosamine, reference compound]	1	5.01	79
